Counter-ions that a name gives are not always drawn.
What was measured:
[1] = plasma fenoldopam levels in dogs; assay type: in vivo, female mongrel dogs
Excerpt: (§1) The renal blood flow of the compounds of Formula 1 was readily measured in female mongrel dogs which underwent chronic implantation of a renal flow probe and arterial Vascular-Acess-Port. Briefly, the dogs were anesthetizied and using standard asceptic techniques, a Transonic flow probe was placed around the left renal artery and the connector tunneled subcutaneously to the back of the dog. The Vascular-Access-Port was placed in the left femoral artery and the access portion tacked to the underlying muscle in the area of the paralumbar-fossa. The patency of the Vascular Access Port was maintained by weekly flushing of the catheter and locking with a 50% glucose 500 U/ml heparinized solution. Dogs were trained to lie quietly restrained on a board and the connector portion of the flow probe was exteriorized under local anesthesia and connected to a Transonic flowmeter. Renal blood flow was recorded continuously on a Gilson chart recorder. Mean arterial pressure was monitored directly from the Vascular-Access-Port using a 23 gauge butterfly. Mean arterial blood pressure and renal blood flow were recorded before and for 6 hr. after the oral or i.v. administration of the R-enantiomers of the parent compound (fenoldopam) and the prodrug of fenoldopam. At the end of the experiment, the flow probe connector was returned to its subcutaneous position and the skin incision closed with chromic gut and skin staples. The VAP was again flushed and a fresh heparin glucose lock established. Standard sterile procedures followed during the removal and replacement of the flow probe connector.
During the experiment post drug blood samples were withdrawn periodically in order to determine the plasma levels of the parent drug, i.e., fenoldopam plasma levels.

renal blood flow = renal blood flow in chronically instrumented (flow probe) dogs; assay type: in vivo, female mongrel dogs; details: oral
Excerpt: as §1
The effect was transient and renal blood flow had returned to control values within 60 minutes.

[2] = cited from earlier work

In the case of Oc1ccc([C@H]2CNCCc3c2cc(O)c(O)c3Cl)cc1 [R-6-chloro-7,8-dihydroxy-1-(4'-hydroxyphenyl)-2,3,4,5-tetrahydro-1H-3-benzazepine], the Tmax ([1]; dog, plasma, oral, 4 dogs, read-out: time of peak plasma fenoldopam level (converted)) is reported as 5 min, the “renal blood flow effect in words” value (renal blood flow; 4 dogs) is reported as “transient” and the “time for renal blood flow to return to control values” (renal blood flow; 4 dogs) is reported as ≤ 60 min. The “increase in renal blood flow” value (renal blood flow; 4 dogs, significant increase) was 80%.

In the case of Oc1ccc(C2CNCCc3c2cc(O)c(O)c3Cl)cc1 (centres unmarked) [fenoldopam, 6-chloro-7,8-dihydroxy-1-(4-hydroxyphenyl) 2,3,4,5-tetrahdyro-1H-3-benzazepine], the “initial peak plasma level” value ([2]; in vivo, po) is listed as “initial high peak plasma level”, the bioavailability ([2]; oral) is listed as “low” and the first pass metabolism ([2]; oral) is listed as “high”. The half life ([2]; reportedly) was “short” and the half-life ([1]; dog, plasma, after oral administration of fenoldopam, dogs) was 12 min.

For CCNC(=O)Oc1ccc([C@H]2CNCCc3c2cc(OC(=O)NCC)c(OC(=O)NCC)c3Cl)cc1 [Example 3, (R)-6-chloro-7,8-diethylcarbamoyl-(4'-ethylcarbamoylphenyl)-2,3,4,5-tetrahydro-1H-3-benzazepine hydrochloride], the “duration of sustained increase in plasma fenoldopam” value ([1]; oral, dogs) was 4 to 6 h and the “duration of sustained increase in renal blood flow” value (renal blood flow; dogs) was 4 to 6 h.

Source: patent US4861771A, “Carbamates of 6-chloro-7,8-dihydroxy-1-(4'-hydroxyphenyl)-2,3,4,5-tetrahydro-1H-3-benz azepine as prodrugs” (priority 1989, dated 1989)
